“And” between values parts separate entries of the source, which are not always exact repeats. Equal values may be shown once. “Also recorded” adds a separate entry of the source. Read-outs that look alike come from different tables or passages of the source. Each block holds one compound with its values, some of them ahead of it.
Tests used:
INS-1 cells = assay: Response of membrane-anchored ZIMIR to extracellular Zn2+ and decay upon Zn2+ washout; format: cell-based, rat; settings: INS-1 cells labeled with ZIMIR, EDTA 10 μM plus DPAS at low micromolar concentrations
Procedure: FIGS. 5A-B. Membrane anchored ZIMIR reports changes of [Zn^2+]e. (FIG. 5A) Example fluorescence images (Excitation 488±7.5 nm, emission 530±20 nm) of INS-1 cells labeled with ZIMIR at different [Zn^2+]e. (FIG. 5B) Quantification of the average ZIMIR fluorescence intensity along the plasma membrane (IZIMIR(PM)).
(FIG. 7A) Time courses of IZIMIR(PM) decay after washing INS-1 cells (initially bathed in FIBS containing 1 μM Zn^2+) with HBS containing EDTA (10 μM) and DPAS (0-8 μM). (FIG. 7B) ZIMIR imaging of insulin/Zn^2+ release of MIN6 cells bathed in SAB containing EDTA (10 μM) and DPAS (4 μM). Time courses of IZIMIR(PM) fluctuation of four separate regions of interest (ROI 1-4) and example ZIMIR images at different time points were shown (a-e; arrow heads highlighting local ZIMIR increases in separate ROIs at different time).
To characterize the response of membrane anchored ZIMIR to changes of extracellular Zn^2+ concentration ([Zn^2+]), the inventors varied [Zn^2+]e from low nanomolar to micromolar, using Zn^2-1 buffers containing nitrilotriacetic acid (for [Zn^2+]e<100 nM) (Hirano et al., 2000) or histidine (for [Zn^2+]e. 100 nM) (Hauser and Tsien, 2007). After recording fluorescence images at different [Zn^2+]e levels, the inventors washed cells with a nominally Zn^2+ free SAB containing 0.2 mM DPAS and followed the decay of IZIMIR(PM).
Upon membrane depolarization, ZIMIR signal increased immediately and reached a plateau before it gradually declined (FIGS. 6E-F). Unexpectedly, however, in some occasions, ZIMIR signal remained elevated even after the inventors lowered KCl concentration to the resting level (5 mM) (FIG. 9). […] In INS-1 beta cells labeled with ZIMIR, after recording ZIMIR fluorescence in solutions containing ˜1 μM of Zn2+, the inventors perifused cells with a nominally Zn^2+-free solution containing only EDTA (10 μM), or with both EDTA (10 μM) and different concentrations of DPAS.

[1] = Competition assay of Zn2+ chelation kinetics (ZIMIR-C2 fluorescence decline after adding EDTA or DPAS); settings: physiological salines, ZIMIR-C2 1 μM in Hanks Balanced Saline Solution
Procedure: FIG. 10. […] In this competition assay, fluorescence intensity (Ex 490 nm, Em 525 nm) of ZIMIR-C2 (1 μM) in Hanks Balanced Saline Solution was recorded. The rate of fluorescence intensity decline after adding EDTA or DPAS reflects the kinetics of EDTA/Zn^2I or DPAS/Zn^2+ complexation.

[2] = FluoZin-3, background; read-out: Zn^2+ dissociation constant Kd(Zn^2+); cited from earlier work
[3] = FluoZin-3, background; read-out: Kd(Ca^2+); cited from earlier work
[4] = Zn2+ binding selectivity of ZIMIR-C2 against Ca2+ or Mg2+ (fluorescence intensity); settings: Ca^2+ 1 mM, Mg^2+ 1 mM; with or without 1 μM ZnCl2
Procedure: (§1) FIGS. 3A-D. (FIG. 3A) Absorption spectrum of ZIMIR-C2. (FIG. 3B) Zn^2+ dependent fluorescence enhancement of ZIMIR-C2. Zn^2+ concentrations (nM) were 0, 43, 140, 440, 840, 1640 and 6440 (from bottom to top). (FIG. 3C) Zn^2+ titration of ZIMIR-C2 as measured from its emission at 515 nm. The solid line represents the exponential fit. […] All measurements were performed in buffers containing 100 mM Hepes, pH 7.5 with 0.4 μM of ZIMIR-C2.
Zn^2+ titration and ion selectivity of ZIMIR. To measure the Zn^2+ affinity of ZIMIR, we performed Zn2+ titration of ZIMIR-C2 (0.4 μM) using a Zn^2+ buffering system based on nitrilotriacetic acid (NTA) (Komatsu et al., 2005). The buffer contained 100 mM HEPES (pH 7.5), 10 mM NTA and varying concentrations of ZnSO4 (0-9 mM) to reach free Zn2+ concentration between 0.1 nM to 43 nM. Zn^2+ concentrations above 43 nM were not buffered. However, since the commercial Hepes always contains a trace amount of divalent metal (≦5 ppm), it was necessary to add a minimum amount of NTA to chelate the residual Zn^2+ present in the Hepes solution. […] To examine the Zn^2+ binding selectivity of ZIMIR against Ca^2+ or Mg^2+, we measured the fluorescence intensity of ZIMIR-C2 in a nominally Zn^2+ free solution containing 50 μM DPAS or in a solution containing 1 μM ZnCl2, with or without Ca^2+/Mg^2+ (1 mM).

[5] = Absorption, fluorescence and solubility properties of ZIMIR-C2 in aqueous solution; format: physicochemical
Procedure: as §1
The inventors synthesized ZIMIR in a total of 8 steps (FIG. 2). […] The absorption maximum of ZIMIR-C2 centered around 493 nm with an extinction coefficient of 73,000 M-1 cm-1. At low nanomolar [Zn^2+], ZIMIR-C2 was nearly non-fluorescent (fluorescence quantum yield Qf (0 Zn^2+) =0.0032) (FIGS. 3A-D). Its fluorescence intensity increased with [Zn^2+]and reached a plateau at micromolar [Zn^2+], with an overall fluorescence enhancement of 70-fold upon Zn^2+ complexation (Qf (Zn^2+) =0.225), providing a Zn^2+ binding dissociation constant of 0.45 μM (FIG. 3C). To confirm that

[6] = Zn2+ titration of ZIMIR-C2 (fluorescence, NTA Zn2+ buffering system); format: binding
Procedure: as §1
Zn^2+ titration and ion selectivity of ZIMIR. To measure the Zn^2+ affinity of ZIMIR, we performed Zn2+ titration of ZIMIR-C2 (0.4 μM) using a Zn^2+ buffering system based on nitrilotriacetic acid (NTA) (Komatsu et al., 2005). The buffer contained 100 mM HEPES (pH 7.5), 10 mM NTA and varying concentrations of ZnSO4 (0-9 mM) to reach free Zn2+ concentration between 0.1 nM to 43 nM. Zn^2+ concentrations above 43 nM were not buffered. However, since the commercial Hepes always contains a trace amount of divalent metal (≦5 ppm), it was necessary to add a minimum amount of NTA to chelate the residual Zn^2+ present in the Hepes solution. […] From that point, increasing amount of ZnSO4 was added to reach higher Zn^2+ concentrations. […] To examine the Zn^2+ binding selectivity of ZIMIR against Ca^2+ or Mg^2+, we measured the fluorescence intensity of ZIMIR-C2 in a nominally Zn^2+ free solution containing 50 μM DPAS or in a solution containing 1 μM ZnCl2, with or without Ca^2+/Mg^2+ (1 mM).

pancreatic islets = assay: Confocal imaging of dye uptake and insulin/Zn2+ release in pancreatic islets; format: cell-based, mouse; settings: ZIMIR 2 μM for 25 min; mouse and human islets
Procedure: FIGS. 8A-C. Imaging insulin/Zn^2+ release in islets by confocal laser scanning microscopy. (FIGS. 8A-B) Confocal images of mouse islets labeled with ZIMIR (FIG. 8A) or calcein/AM (FIG. 8B). (FIG. 8C) Confocal ZIMIR imaging of insulin/Zn^2+ release in a mouse islet bathed in SAB. Images from two example layers 15 μm apart before and 10 sec post KCl (40 mM) stimulation were shown.
FIG. 11. ZIMIR rapidly labels cells of intact human islets. Representative CLSM images of a ZIMIR labeled human islet at three focal planes 20 μm apart.
Islets labeling and ZIMIR imaging by confocal laser scanning microscopy. Experiments with rodent animals were carried out according to protocols approved by the Institutional Animal Care and Use Committee of University of Texas Southwestern Medical Center. Rodent islets were isolated from Sprague-Dawley rats or C57BL/6 mice after digesting exocrine tissues of pancreas using collagenase as described below. To image insulin release in islets, the inventors labeled islets with ZIMIR (final concentration 2 μM with 0.025% Pluronic) in SAB buffer for […]. Labeled islets were then transferred to an imaging dish that had been coated with 0.5% PuraMatrix peptide hydrogel (BD Biosciences, Cat # 354250). Islets adhered to the PuraMatrix hydrogel within 5 min. They then imaged ZIMIR fluorescence by confocal laser scanning microscopy using a LSM510 imaging system (Carl Zeiss) and a 40× oil immersion objective (Dakin and Li, 2007).
Confocal imaging of ZIMIR uptake and insulin/Zn^2+ release in pancreatic islets. In addition to cultured cells, ZIMIR also rapidly and noninvasively labels cells in preparations such as dissected pancreatic islets. After loading islets with ZIMIR (2 μM) for 25 min, the inventors applied CLSM to track the distribution of ZIMIR in three dimensions (3D). […] The result confirmed that ZIMIR readily diffused through the interstitial space to reach interior cells, whereas calcein/AM was trapped by cells in the outer layer, unable to penetrate any deeper. After labeling, the inventors depolarized cells with high concentration of KCl.

Compound: O=S(=O)(O)CCN(Cc1ccccn1)Cc1ccccn1 [DPAS, 2-[Bis(2-pyridinylmethyl)amino]-ethanesulfonic acid]
increase of the rate of Zn^2+ dissipation from the plasma membrane (INS-1 cells): about one order of magnitude
Zn^2+ chelation kinetics compared with EDTA [1]: much faster kinetics than EDTA

Compound: COc1ccc(N(CC(=O)O)CC(=O)O)c(OCCOc2cc(-c3c4cc(F)c(=O)cc-4oc4cc(O)c(F)cc34)ccc2NCC(=O)O)c1 [FluoZin-3]
Kd [2]: 15 nM
Kd [3]: ~10000 nM

absorption maximum ([5]; 100 mM Hepes, pH 7.5): around 493 nm
aqueous solubility ([5]; aqueous solutions): highly soluble
extinction coefficient ([5]; at absorption maximum): 73,000 M-1 cm-1
fluorescence quantum yield Qf (0 Zn^2+) ([5]; low nanomolar [Zn^2+]): 0.0032
fluorescence quantum yield Qf (Zn^2+) ([5]; upon Zn^2+ complexation, micromolar [Zn^2+]): 0.225
Kd ([6]; 0.4 μM ZIMIR-C2, 100 mM HEPES pH 7.5, two independent titrations, read-out: Kd(Zn^2+), independent Zn^2+ titrations): 433 nM and 467 nM
Kd ([6]; FIG. 3C, emission at 515 nm, read-out: Zn^2+ binding dissociation constant): 450 nM
Kd ([6]; average of two titrations, 100 mM HEPES pH 7.5, read-out: average Kd(Zn^2+)): 450 nM
Compound: CCN(CC(=O)O)Cc1c2oc3c(CN(CC)CC(=O)O)c(O)ccc3c(-c3cc(NCCN(CCc4ccccn4)Cc4ccccn4)ccc3C(=O)O)c-2ccc1=O [ZIMIR-C2]
effect of Ca^2+ and Mg^2+ on fluorescence / Zn^2+ selectivity [4]: neither Ca^2+ nor Mg^2+ affected ZIMIR-C2 fluorescence; also recorded: binds Zn^2+ selectively against Ca^2+ (1 mM) and Mg^2+ (1 mM)
overall fluorescence enhancement upon Zn^2+ complexation ([6]; plateau at micromolar [Zn^2+]): 70 fold

Compound: calcein/AM [reference compound]
distribution of dye in islets (3D, CLSM) (pancreatic islets): only labeled cells of the superficial layers

From patent US8530183B2, “Zinc sensors for cellular imaging” (The Board of Regents of the University of Texas System, priority 2010, dated 2013)
